Data from patent publication US8343983B2, “Substituted pyrazolo-pyrimidine compounds” (ArQule, Inc., priority 2009, dated 2013).
Like-named read-outs stand apart in the source and are kept apart here.

Tested on: cancer cells
Experiment: MTS assay: inhibition of cell growth (formazan absorbance at 492 nm after 72 hours with test compound)
Format: cell-based
Conditions: inhibition class
In short: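 DMEM with 1% FBS; cells seeded at 3000/well and grown 18 h at 37 °C, then exposed to compound for 72 h and to MTS/PMS for 4 h. IC50 is the concentration giving a 50% absorbance drop; grades are % inhibition bands.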

[1] = Homo sapiens, DLD-1 cells, read-out: DLD-1, MTS 72 hours at 10 uM
[2] = Homo sapiens, KATO III cells, read-out: KATO III, MTS 72 hours at 10 uM
[3] = Homo sapiens, MDA-MB-231 cells, read-out: MDA-MB-231, MTS 72 hours at 10 uM
[4] = Homo sapiens, NCI-H1299 cells, read-out: NCI-H1299, MTS 72 hours at 10 uM
[5] = Homo sapiens, PC-3 cells, read-out: PC-3, MTS 72 hours at 10 uM
[6] = PACA-2 cells, read-out: PACA-2, MTS 72 hours at 10 uM

SMILES	inhibition at 10 µM [1] [%]	inhibition at 10 µM [2] [%]	inhibition at 10 µM [3] [%]	inhibition at 10 µM [4] [%]	inhibition at 10 µM [5] [%]	inhibition at 10 µM [6] [%]
CCCCNc1nc2c3c(n[nH]c3n1)CCN2Cc1ccccc1 [Compound 84, 6-benzyl-N-butyl-2,6,7,8-tetrahydro-1,2,3,5,6-pentaazaacenaphthylen-4-amine]	> 79	> 79	> 79	> 79	> 79	> 79
Clc1cncc(Cl)c1N1CCN(c2nc3c4c(n[nH]c4n2)CCN3Cc2ccccc2)CC1 [Compound 85, 6-benzyl-4-[4-(3,5-dichloropyridin-4-yl)piperazin-1-yl]-2,6,7,8-tetrahydro-1,2,3,5,6-pentaazaacenaphthylene]	< 50	< 50	50 to 79	< 50	> 79	< 50
Cc1ccc(C)c(CCNc2nc3c4c(n[nH]c4n2)CCN3Cc2ccccc2)c1 [Compound 86, 6-benzyl-N-[2-(2,5-dimethylphenyl)ethyl]-2,6,7,8-tetrahydro-1,2,3,5,6-pentaazaacenaphthylen-4-amine]	< 50	50 to 79	< 50	50 to 79	< 50	< 50
Cc1ccccc1CCNc1nc2c3c(n[nH]c3n1)CCN2Cc1ccccc1 [Compound 87, 6-benzyl-N-[2-(2-methylphenyl)ethyl]-2,6,7,8-tetrahydro-1,2,3,5,6-pentaazaacenaphthylen-4-amine]	< 50	< 50	< 50	50 to 79	< 50	< 50
c1ccc(CN2CCc3n[nH]c4nc(N5CCN(Cc6cccnc6)CC5)nc2c34)cc1 [Compound 88, 6-benzyl-4-[4-(pyridin-3-ylmethyl)piperazin-1-yl]-2,6,7,8-tetrahydro-1,2,3,5,6-pentaazaacenaphthylene]	< 50	> 79	> 79	< 50	> 79	< 50
CCOC(=O)N1CCN(c2nc3c4c(n[nH]c4n2)CCN3Cc2ccccc2)CC1 [Compound 89, ethyl 4-(6-benzyl-2,6,7,8-tetrahydro-1,2,3,5,6-pentaazaacenaphthylen-4-yl)piperazine-1-carboxylate]	< 50	< 50	> 79	< 50	> 79	< 50
c1ccc(CN2CCc3n[nH]c4nc(NCCCN5CCCCC5)nc2c34)cc1 [Compound 90, 6-benzyl-N-(3-piperidin-1-ylpropyl)-2,6,7,8-tetrahydro-1,2,3,5,6-pentaazaacenaphthylen-4-amine]	> 79	> 79	> 79	> 79	> 79	> 79
CN(C)CCCNc1nc2c3c(n[nH]c3n1)CCN2Cc1ccccc1 [Compound 91, N′-(6-benzyl-2,6,7,8-tetrahydro-1,2,3,5,6-pentaazaacenaphthylen-4-yl)-N,N-dimethylpropane-1,3-diamine]	50 to 79	> 79	> 79	< 50	> 79	< 50
c1ccc(CN2CCc3n[nH]c4nc(N5CCN(Cc6ccncc6)CC5)nc2c34)cc1 [Compound 92, 6-benzyl-4-[4-(pyridin-4-ylmethyl)piperazin-1-yl]-2,6,7,8-tetrahydro-1,2,3,5,6-pentaazaacenaphthylene]	< 50	< 50	< 50	< 50	< 50	< 50
COc1cccc(CNc2nc3c4c(n[nH]c4n2)CCN3Cc2ccccc2)c1 [Compound 93, 6-benzyl-N-(3-methoxybenzyl)-2,6,7,8-tetrahydro-1,2,3,5,6-pentaazaacenaphthylen-4-amine]	< 50	< 50	< 50	< 50	< 50	< 50
Fc1cccc(CCNc2nc3c4c(n[nH]c4n2)CCN3Cc2ccccc2)c1 [Compound 94, 6-benzyl-N-[2-(3-fluorophenyl)ethyl]-2,6,7,8-tetrahydro-1,2,3,5,6-pentaazaacenaphthylen-4-amine]	< 50	< 50	< 50	< 50	< 50	< 50
c1ccc(CN2CCc3n[nH]c4nc(N5CCN(c6ccccn6)CC5)nc2c34)cc1 [Compound 95, 6-benzyl-4-(4-pyridin-2-ylpiperazin-1-yl)-2,6,7,8-tetrahydro-1,2,3,5,6-pentaazaacenaphthylene]	< 50	< 50	< 50	< 50	< 50	< 50
C[C@@H]1CN(c2nc3c4c(n[nH]c4n2)CCN3Cc2ccccc2)C[C@H](C)O1 [Compound 96, 6-benzyl-4-[(2R,6S)-2,6-dimethylmorpholin-4-yl]-2,6,7,8-tetrahydro-1,2,3,5,6-pentaazaacenaphthylene]	< 50	> 79	> 79	< 50	> 79	< 50
Brc1ccc(CCNc2nc3c4c(n[nH]c4n2)CCN3Cc2ccccc2)cc1 [Compound 97, 6-benzyl-N-[2-(4-bromophenyl)ethyl]-2,6,7,8-tetrahydro-1,2,3,5,6-pentaazaacenaphthylen-4-amine]	50 to 79	< 50	< 50	50 to 79	< 50	< 50
COc1ccc2c(CCNc3nc4c5c(n[nH]c5n3)CCN4Cc3ccccc3)c[nH]c2c1 [Compound 98, 6-benzyl-N-[2-(6-methoxy-1H-indol-3-yl)ethyl]-2,6,7,8-tetrahydro-1,2,3,5,6-pentaazaacenaphthylen-4-amine]	< 50	50 to 79	50 to 79	50 to 79	> 79	< 50
COc1ccc(CN2CCc3n[nH]c4nc(SC)nc2c34)cc1 [Compound 99, 6-(4-methoxybenzyl)-4-(methylsulfanyl)-2,6,7,8-tetrahydro-1,2,3,5,6-pentaazaacenaphthylene]	< 50	< 50	< 50	< 50	< 50	< 50
COc1ccc(CN2CCc3n[nH]c4nc(NCc5ccccc5)nc2c34)cc1 [Compound 100, N-benzyl-6-(4-methoxybenzyl)-2,6,7,8-tetrahydro-1,2,3,5,6-pentaazaacenaphthylen-4-amine]	< 50	< 50	< 50	< 50	< 50	< 50
c1ccc(CNc2nc3c4c(n[nH]c4n2)CCN3)cc1 [Compound 101, N-benzyl-2,6,7,8-tetrahydro-1,2,3,5,6-pentaazaacenaphthylen-4-amine]	50 to 79	< 50	< 50	< 50	50 to 79	> 79
COc1ccc(CN2CCc3n[nH]c4nc(NCc5cccnc5)nc2c34)cc1 [Compound 102, 6-(4-methoxybenzyl)-N-(pyridin-3-ylmethyl)-2,6,7,8-tetrahydro-1,2,3,5,6-pentaazaacenaphthylen-4-amine]	> 79	> 79	> 79	> 79	> 79	> 79
COc1ccc(CN2CCc3n[nH]c4nc(N5CCN(c6ccncc6)CC5)nc2c34)cc1 [Compound 103, 6-(4-methoxybenzyl)-4-(4-pyridin-4-ylpiperazin-1-yl)-2,6,7,8-tetrahydro-1,2,3,5,6-pentaazaacenaphthylene]	> 79	> 79	> 79	50 to 79	> 79	> 79
COc1ccc(CN2CCc3n[nH]c4nc(NCCc5c[nH]c6ccccc56)nc2c34)cc1 [Compound 104, N-[2-(1H-indol-3-yl)ethyl]-6-(4-methoxybenzyl)-2,6,7,8-tetrahydro-1,2,3,5,6-pentaazaacenaphthylen-4-amine]	50 to 79	50 to 79	< 50	50 to 79	< 50	< 50
COc1ccc(CN2CCc3n[nH]c4nc(NCCN5CCOCC5)nc2c34)cc1 [Compound 105, 6-(4-methoxybenzyl)-N-(2-morpholin-4-ylethyl)-2,6,7,8-tetrahydro-1,2,3,5,6-pentaazaacenaphthylen-4-amine]	> 79	> 79	> 79	> 79	> 79	> 79
